Values after ≈ are worked out from the molar mass of the structure shown.
Legend:
Type in all cases: cell-based
Cryptococcus neoformans = assay: In vitro antifungal activity, MIC by serial agar dilution method; conditions: Sabouraud dextrose agar, 10^6 cells/ml, 40 hours at 28° C.
Method: (§1) Antifungal activities of representative compounds of the present invention were evaluation in vitro. The minimum inhibitory concentrations (MICs) against various fungi were determined by serial agar dilution method using Sabouraud dextrose agar. Thus, approximately 0.003 ml of fungal suspension containing 10^6 cells/ml was applied to the surface of agar plates containing the test antibiotics.

[1] = tested on: Trichophyton mentagrophytes; assay: as above; conditions: Sabouraud dextrose agar, 10^6 cells/ml, 40 hours at 28° C.
Method: as §1

Aspergillus fumigatus = assay: as above; conditions: Sabouraud dextrose agar, 10^6 cells/ml, 40 hours at 28° C.
Method: as §1

Candida albicans = assay: as above; conditions: Sabouraud dextrose agar, 10^6 cells/ml, 40 hours at 28° C.
Method: as §1

fungi = assay: Antifungal activity of synthesized pradimicin A compared with naturally occurring pradimicin A; conditions: semisynthetic product of Example 12 vs naturally occurring pradimicin A

Compound | MIC (Cryptococcus neoformans) [µg/mL] | MIC [1] [µg/mL] | MIC (Aspergillus fumigatus) [µg/mL] | MIC (Candida albicans) [µg/mL] | antifungal activity (fungi)
CN[C@@H]1[C@H](O[C@@H]2OC[C@@H](O)[C@H](O)[C@H]2O)[C@@H](O)[C@H](O[C@H]2c3cc(C)c(C(=O)N[C@H](Cc4ccc(O)c(O)c4)C(=O)O)c(O)c3-c3c(cc4c(c3O)C(=O)c3cc(OC)cc(O)c3C4=O)[C@@H]2O)O[C@@H]1C [Example 13, 15-Desalanyl-15-[D-(3,4-dihydroxyphenyl)alanyl] pradimicin A] | 25 (≈ 26.3 µM) | 50 (≈ 52.7 µM) | > 50 | > 50 | –
CN[C@@H]1[C@H](O[C@@H]2OC[C@@H](O)[C@H](O)[C@H]2O)[C@@H](O)[C@H](O[C@H]2c3cc(C)c(C(=O)N[C@@H](CO)C(=O)O)c(O)c3-c3c(cc4c(c3O)C(=O)c3cc(OC)cc(O)c3C4=O)[C@@H]2O)O[C@@H]1C [Example 14] | 12.5 (≈ 14.6 µM) | > 100 | > 100 | 12.5 (≈ 14.6 µM) | –
CN[C@@H]1[C@H](O[C@@H]2OC[C@@H](O)[C@H](O)[C@H]2O)[C@@H](O)[C@H](O[C@H]2c3cc(C)c(C(=O)N[C@H](CN)C(=O)O)c(O)c3-c3c(cc4c(c3O)C(=O)c3cc(OC)cc(O)c3C4=O)[C@@H]2O)O[C@@H]1C [Example 15] | 6.3 (≈ 7.36 µM) | 6.3 (≈ 7.36 µM) | 6.3 (≈ 7.36 µM) | 25 (≈ 29.2 µM) | –
CN[C@@H]1[C@H](O[C@@H]2OC[C@@H](O)[C@H](O)[C@H]2O)[C@@H](O)[C@H](O[C@H]2c3cc(C)c(C(=O)N[C@H](Cc4cnc[nH]4)C(=O)O)c(O)c3-c3c(cc4c(c3O)C(=O)c3cc(OC)cc(O)c3C4=O)[C@@H]2O)O[C@@H]1C [Example 19] | 12.5 (≈ 13.8 µM) | 12.5 (≈ 13.8 µM) | 50 (≈ 55.1 µM) | > 50 | –
CN[C@@H]1[C@H](O[C@@H]2OC[C@@H](O)[C@H](O)[C@H]2O)[C@@H](O)[C@H](O[C@H]2c3cc(C)c(C(=O)N[C@H](CCCCN)C(=O)O)c(O)c3-c3c(cc4c(c3O)C(=O)c3cc(OC)cc(O)c3C4=O)[C@@H]2O)O[C@@H]1C [Example 21] | 6.3 (≈ 7.02 µM) | 6.3 (≈ 7.02 µM) | 6.3 (≈ 7.02 µM) | 25 (≈ 27.8 µM) | –
COc1cc(O)c2c(c1)C(=O)c1c(cc3c(c1O)-c1c(cc(C)c(C(=O)N[C@@H](C(=O)O)[C@H](C)O)c1O)[C@H](O[C@@H]1O[C@H](C)[C@H](O)[C@H](O[C@@H]4OC[C@@H](O)[C@H](O)[C@H]4O)[C@H]1O)[C@H]3O)C2=O [Example 27, 15-Desalanyl-15-(D-threonyl) -4'-desmethylamino-4'-hydroxypradimicin A] | 6.3 (≈ 7.34 µM) | 12.5 (≈ 14.6 µM) | 12.5 (≈ 14.6 µM) | 12.5 (≈ 14.6 µM) | –
COc1cc(O)c2c(c1)C(=O)c1c(cc3c(c1O)-c1c(cc(C)c(C(=O)N[C@H](CSSC[C@@H](N)C(=O)O)C(=O)O)c1O)[C@H](O[C@@H]1O[C@H](C)[C@H](O)[C@H](O[C@@H]4OC[C@@H](O)[C@H](O)[C@H]4O)[C@H]1O)[C@H]3O)C2=O [Example 29] | 3.1 (≈ 3.17 µM) | 12.5 (≈ 12.8 µM) | 6.3 (≈ 6.44 µM) | 6.3 (≈ 6.44 µM) | –
COc1cc(O)c2c(c1)C(=O)c1c(cc3c(c1O)-c1c(cc(C)c(C(=O)N[C@@H](CO)C(=O)O)c1O)[C@H](O[C@@H]1O[C@H](C)[C@H](O)[C@H](O[C@@H]4OC[C@@H](O)[C@H](O)[C@H]4O)[C@H]1O)[C@H]3O)C2=O [Example 30] | 50 (≈ 59.3 µM) | > 100 | > 100 | 12.5 (≈ 14.8 µM) | –
COc1cc(O)c2c(c1)C(=O)c1c(cc3c(c1O)-c1c(cc(C)c(C(=O)N[C@H](C)C(=O)O)c1O)[C@H](O[C@@H]1O[C@H](C)[C@H](O)[C@H](O[C@@H]4OC[C@@H](O)[C@H](O)[C@H]4O)[C@H]1O)[C@H]3O)C2=O [Example 31] | 3.1 (≈ 3.75 µM) | 3.1 (≈ 3.75 µM) | 3.1 (≈ 3.75 µM) | 6.3 (≈ 7.61 µM) | –
CN[C@@H]1[C@H](O[C@@H]2OC[C@@H](O)[C@H](O)[C@H]2O)[C@@H](O)[C@H](O[C@H]2c3cc(C)c(C(=O)N[C@H](C)C(=O)O)c(O)c3-c3c(cc4c(c3O)C(=O)c3cc(OC)cc(O)c3C4=O)[C@@H]2O)O[C@@H]1C [pradimicin A] | – | – | – | – | identical to naturally occurring pradimicin A in spectroscopic data (NMR, IR, UV), HPLC and antifungal activity

The remaining molecules from weak to strong by MIC (Cryptococcus neoformans), led by results:

MIC (Cryptococcus neoformans) [µg/mL] | MIC [1] [µg/mL] | MIC (Aspergillus fumigatus) [µg/mL] | MIC (Candida albicans) [µg/mL] | Compound | antifungal activity (fungi)
6.3 (≈ 7.12 µM) | 12.5 (≈ 14.1 µM) | 50 (≈ 56.5 µM) | 12.5 (≈ 14.1 µM) | CN[C@@H]1[C@H](O[C@@H]2OC[C@@H](O)[C@H](O)[C@H]2O)[C@@H](O)[C@H](O[C@H]2c3cc(C)c(C(=O)N[C@H](CC(=O)O)C(=O)O)c(O)c3-c3c(cc4c(c3O)C(=O)c3cc(OC)cc(O)c3C4=O)[C@@H]2O)O[C@@H]1C [Example 16] | –
3.1 (≈ 3.46 µM) | > 100 | 50 (≈ 55.9 µM) | > 100 | CN[C@@H]1[C@H](O[C@@H]2OC[C@@H](O)[C@H](O)[C@H]2O)[C@@H](O)[C@H](O[C@H]2c3cc(C)c(C(=O)NC(C(=O)O)C(F)(F)F)c(O)c3-c3c(cc4c(c3O)C(=O)c3cc(OC)cc(O)c3C4=O)[C@@H]2O)O[C@@H]1C (stereo partly drawn) [Example 17] | –
3.1 (≈ 3.64 µM) | 3.1 (≈ 3.64 µM) | 3.1 (≈ 3.64 µM) | 6.3 (≈ 7.4 µM) | CN[C@@H]1[C@H](O[C@@H]2OC[C@@H](O)[C@H](O)[C@H]2O)[C@@H](O)[C@H](O[C@H]2c3cc(C)c(C(=O)NCc4nnn[nH]4)c(O)c3-c3c(cc4c(c3O)C(=O)c3cc(OC)cc(O)c3C4=O)[C@@H]2O)O[C@@H]1C [Example 20] | –
3.1 (≈ 3.28 µM) | 12.5 (≈ 13.2 µM) | 3.1 (≈ 3.28 µM) | 25 (≈ 26.5 µM) | CCNC(=O)SC[C@@H](NC(=O)c1c(C)cc2c(c1O)-c1c(cc3c(c1O)C(=O)c1cc(OC)cc(O)c1C3=O)[C@H](O)[C@H]2O[C@@H]1O[C@H](C)[C@H](NC)[C@H](O[C@@H]2OC[C@@H](O)[C@H](O)[C@H]2O)[C@H]1O)C(=O)O [Example 23] | –
1.6 (≈ 1.75 µM) | 12.5 (≈ 13.6 µM) | 6.3 (≈ 6.87 µM) | > 100 | CN[C@@H]1[C@H](O[C@@H]2OC[C@@H](O)[C@H](O)[C@H]2O)[C@@H](O)[C@H](O[C@H]2c3cc(C)c(C(=O)N[C@H](Cc4ccccc4)C(=O)O)c(O)c3-c3c(cc4c(c3O)C(=O)c3cc(OC)cc(O)c3C4=O)[C@@H]2O)O[C@@H]1C [Example 18] | –
